Data on 19 compounds can be found in patent US7279494B2, “Antimicrobial [3.1.0] bicyclohexylphenyl-oxazolidinone derivatives and analogues” (Pfizer Inc., priority 2003, dated 2007).

What all share (type): cell-based
For one assay, the system named is S. aureus UC9213. In words: MIC by standard agar dilution, S. aureus UC9213. Conditions: Staphylococcus aureus, UC9213, Mueller Hinton agar, incubated overnight at 35° C. The source says: (§1) The in vitro activity of compounds of the subject invention may be assessed by standard testing procedures such as the determination of minimum inhibitory concentration (MIC) by agar dilution as described in “Approved Standard. Methods for Dilution Antimicrobial Susceptibility Tests for Bacteria that Grow Aerobically,” 3rd ed., published 1993 by the National Committee for Clinical Laboratory standards, Villanova, Pa., USA.
(§2) The in vitro MICs of test compounds may be determined by a standard agar dilution method. A stock drug solution of each analog is prepared in a preferred solvent, usually DMSO:H2O (1:3). Serial 2-fold dilutions of each sample are made using 1.0 mL aliquots of sterile distilled water. To each 1.0 mL aliquot of drug is added 9 mL of molten Mueller Hinton agar medium. The drug-supplemented agar is mixed, poured into 15×100 mm petri dishes, and allowed to solidify and dry prior to inoculation.
(§3) Vials of each of the test organisms are maintained frozen in the vapor phase of a liquid nitrogen freezer. Test cultures are grown overnight at 35° C. on the medium appropriate for the organism. Colonies are harvested with a sterile swab, and cell suspensions are prepared in Trypticase Soy broth (TSB) to equal the turbidity of a 0.5 McFarland standard. A 1:20 dilution of each suspension is made in TSB. The plates containing the drug supplemented agar are inoculated with a 0.001 mL drop of the cell suspension using a Steers replicator, yielding approximately 10^4 to 10^5 cells per spot. The plates are incubated overnight at 35° C.
(§4) Following incubation the Minimum Inhibitory Concentration (MIC μg/mL), the lowest concentration of drug that inhibits visible growth of the organism, is read and recorded.
(In general: In agar dilution the substance is mixed into plates at graded concentrations.)

Another assay has as its system S. pneumoniae UC9912. Briefly: MIC by standard agar dilution, S. pneumoniae UC9912. As to conditions: Streptococcus pneumoniae, UC9912, Mueller Hinton agar, incubated overnight at 35° C.
From the text: as §1, §2, §3, §4

Another assay concerns H. influenzae 30063. Briefly: MIC by standard agar dilution, H. influenzae 30063. Conditions: Haemophilus influenzae, 30063, agar dilution, Mueller Hinton agar, incubated overnight at 35° C.; read-out: H. influenzae 30063 MIC.
From the text: as §1, §2, §3, §4

Values after ≈ are worked out from the molar mass of the structure shown.

`CC(=O)NC[C@H]1CN(c2ccc([C@H]3[C@@H]4CN(C(=O)c5cc[nH]n5)C[C@@H]43)c(F)c2)C(=O)O1` [Example 38, N-[((5S)-3-{3-fluoro-4-[exo-(1R,5S)-3-(1H-pyrazole-3-carbonyl)-3-azabicyclo[3.1.0]hex-6-yl]phenyl}-2-oxo-1,3-oxazolidin-5-yl)methyl]acetamide]: the values for the MIC with S. aureus UC9213, in the assay with S. pneumoniae UC9912 and in the assay with H. influenzae 30063 were 2 µg/mL (≈ 4.68 µM), 2 µg/mL (≈ 4.68 µM) and 8 µg/mL (≈ 18.7 µM), respectively.

Take `CC(=O)NC[C@H]1CN(c2ccc([C@H]3[C@@H]4CN(C(=O)c5c[nH]cn5)C[C@@H]43)c(F)c2)C(=O)O1` [Example 39, N-[((5S)-3-{3-fluoro-4-[exo-(1R,5S)-3-(1H-imidazole-4-carbonyl)-3-azabicyclo[3.1.0]hex-6-yl]phenyl}-2-oxo-1,3-oxazolidin-5-yl)methyl]acetamide]: the figures for the MIC in the assay on S. aureus UC9213, against S. pneumoniae UC9912 and with H. influenzae 30063 were 0.5 µg/mL (≈ 1.17 µM), 1 µg/mL (≈ 2.34 µM) and 4 µg/mL (≈ 9.36 µM), respectively.

`CC(=O)NC[C@H]1CN(c2ccc([C@H]3[C@@H]4CN(C(=O)c5cn[nH]c5)C[C@@H]43)c(F)c2)C(=O)O1` [Example 40, N-[((5S)-3-{3-fluoro-4-[exo-(1R,5S)-3-(1H-pyrazole-4-carbonyl)-3-azabicyclo[3.1.0]hex-6-yl]phenyl}-2-oxo-1,3-oxazolidin-5-yl)methyl]acetamide]: the values for the MIC against S. aureus UC9213, with S. pneumoniae UC9912 and in the assay with H. influenzae 30063 were 4 µg/mL (≈ 9.36 µM), 2 µg/mL (≈ 4.68 µM) and 16 µg/mL (≈ 37.4 µM), respectively.

For `CC(=O)NC[C@H]1CN(c2ccc([C@H]3[C@@H]4CN(C(=O)[C@H]5CCCO5)C[C@@H]43)c(F)c2)C(=O)O1` [Example 41, N-[((5S)-3-{3-fluoro-4-[exo-(1R,5S)-3-(tetrahydrofuran-2-(R)-carbonyl)-3-azabicyclo[3.1.0]hex-6-yl]phenyl}-2-oxo-1,3-oxazolidin-5-yl)methyl]acetamide], the MIC came to 4 µg/mL (≈ 9.27 µM) against S. aureus UC9213, 2 µg/mL (≈ 4.64 µM) in the assay on S. pneumoniae UC9912 and 32 µg/mL (≈ 74.2 µM) in the assay with H. influenzae 30063.

`CC(=O)NC[C@H]1CN(c2ccc([C@H]3[C@@H]4CN(C(=O)[C@@H]5CCCO5)C[C@@H]43)c(F)c2)C(=O)O1` [Example 42, N-[((5S)-3-{3-fluoro-4-[exo-(1R,5S)-3-(tetrahydrofaran-2-(S)-carbonyl)-3-azabicyclo[3.1.0]hex-6-yl]phenyl}-2-oxo-1,3-oxazolidin-5-yl)methyl]acetamide]: the MIC was found to be 8 µg/mL (≈ 18.5 µM) with S. aureus UC9213, 4 µg/mL (≈ 9.27 µM) in the assay on S. pneumoniae UC9912 and 32 µg/mL (≈ 74.2 µM) in the assay with H. influenzae 30063.

With `CC(=O)NC[C@H]1CN(c2ccc([C@H]3[C@@H]4CN(c5ncccn5)C[C@@H]43)c(F)c2)C(=O)O1` [Example 43, N-[((5S)-3-{3-fluoro-4-[exo-(1R,5S)-3-(pyrimidin-2-yl)-3-azabicyclo[3.1.0]hex-6-yl]phenyl}-2-oxo-1,3-oxazolidin-5-yl)methyl]acetamide], the MIC against S. aureus UC9213 is 4 µg/mL (≈ 9.72 µM); against S. pneumoniae UC9912, 1 µg/mL (≈ 2.43 µM); in the assay with H. influenzae 30063, 32 µg/mL (≈ 77.8 µM).

In the case of `CC(=O)NC[C@H]1CN(c2ccc([C@H]3[C@@H]4CN(c5nn[nH]n5)C[C@@H]43)c(F)c2)C(=O)O1` [Example 44, N-[((5S)-3-{3-fluoro-4-[exo-(1R,5S)-3-(2H-tetrazol-5-yl)-3-azabicyclo[3.1.0]hex-6-yl]phenyl}-2-oxo-1,3-oxazolidin-5-yl)methyl]acetamide], the MIC with S. aureus UC9213 worked out at 16 µg/mL (≈ 39.9 µM); against S. pneumoniae UC9912 it was 32 µg/mL (≈ 79.7 µM); in the assay on H. influenzae 30063, 64 µg/mL (≈ 159 µM).

As to `CC(=O)NC[C@H]1CN(c2ccc([C@H]3[C@@H]4CN(CCF)C[C@@H]43)c(F)c2)C(=O)O1` [Example 46, N-[((5S)-3-{3-fluoro-4-[exo-(1R,5S)-3-(2-fluoroethyl)-3-azabicyclo[3.1.0]hex-6-yl]phenyl}-2-oxo-1,3-oxazolidin-5-yl)methyl]acetamide], the MIC came to 8 µg/mL (≈ 21.1 µM) against S. aureus UC9213, 2 µg/mL (≈ 5.27 µM) with S. pneumoniae UC9912 and 16 µg/mL (≈ 42.2 µM) in the assay on H. influenzae 30063.

In the case of `CC(=O)NC[C@H]1CN(c2ccc([C@H]3[C@@H]4CN(CCO)C[C@@H]43)c(F)c2)C(=O)O1` [Example 47, N-[((5S)-3-{3-fluoro-4-[exo-(1R,5S)-3-(2-hydroxyethyl)-3-azabicyclo[3.1.0]hex-6-yl]phenyl}-2-oxo-1,3-oxazolidin-5-yl)methyl]acetamide], the MIC in the assay with S. aureus UC9213 stood at 4 µg/mL (≈ 10.6 µM); with S. pneumoniae UC9912, 1 µg/mL (≈ 2.65 µM); in the assay with H. influenzae 30063 it was 8 µg/mL (≈ 21.2 µM).

Regarding `CC(=O)NC[C@H]1CN(c2ccc([C@H]3[C@@H]4CN(CCC#N)C[C@@H]43)c(F)c2)C(=O)O1` [Example 48, N-[((5S)-3-{3-fluoro-4-[exo-(1R,5S)-3-(2-cyanoethyl)-3-azabicyclo[3.1.0]hex-6-yl]phenyl}-2-oxo-1,3-oxazolidin-5-yl)methyl]acetamide], the figures for the MIC in the assay on S. aureus UC9213, against S. pneumoniae UC9912 and in the assay on H. influenzae 30063 were 4 µg/mL (≈ 10.4 µM), 1 µg/mL (≈ 2.59 µM) and 16 µg/mL (≈ 41.4 µM), respectively.

As to `CC(=O)NC[C@H]1CN(c2ccc([C@H]3[C@@H]4CN(N(C)C)C[C@@H]43)c(F)c2)C(=O)O1` [Example 49, N-[((5S)-3-{3-fluoro-4-[exo-(1R,5S)-3-dimethylamino-3-azabicyclo[3.1.0]hex-6-yl]phenyl}-2-oxo-1,3-oxazolidin-5-yl)methyl]acetamide], the MIC in the assay with S. aureus UC9213, against S. pneumoniae UC9912 and with H. influenzae 30063 was above 64 µg/mL in each case.

As to `CCC(=O)NC[C@H]1CN(c2ccc([C@H]3[C@@H]4C[S+]([O-])C[C@@H]43)c(F)c2)C(=O)O1` (stereo partly drawn) [Example 50, N-[((5S)-3-{3-fluoro-4-[exo-(1R,5S)-3-oxido-3-thiabicyclo[3.1.0]hex-6-yl]phenyl}-2-oxo-1,3-oxazolidin-5-yl)methyl]proyanamide], the MIC against S. aureus UC9213 was 2 µg/mL (≈ 5.26 µM); with S. pneumoniae UC9912, 1 µg/mL (≈ 2.63 µM); with H. influenzae 30063, 4 µg/mL (≈ 10.5 µM).

`CCC(=O)NC[C@H]1CN(c2ccc([C@H]3[C@@H]4CS(=O)(=O)C[C@@H]43)c(F)c2)C(=O)O1` [Example 51, N-[((5S)-3-{4-[exo-(1R,5S)-3,3-dioxido-3-thiabicyclo[3.1.0]hex-6-yl]-3-fluorophenyl}-2-oxo-1,3-oxazolidin-5-yl)methyl]propanamide]: the values for the MIC against S. aureus UC9213, against S. pneumoniae UC9912 and with H. influenzae 30063 were 2 µg/mL (≈ 5.04 µM), 1 µg/mL (≈ 2.52 µM) and 8 µg/mL (≈ 20.2 µM), respectively.

In the case of `O=C(NC[C@H]1CN(c2ccc([C@H]3[C@@H]4C[S+]([O-])C[C@@H]43)c(F)c2)C(=O)O1)C1CC1` (stereo partly drawn) [Example 52, N-[((5S)-3-{3-fluoro-4-[exo-(1R,5S)-3-oxido-3-thiabicyclo[3.1.0]hex-6-yl]phenyl}-2-oxo-1,3-oxazolidin-5-yl)methyl]cyclopropanecarboxamide], the MIC was 4 µg/mL (≈ 10.2 µM) with S. aureus UC9213, 1 µg/mL (≈ 2.55 µM) against S. pneumoniae UC9912 and 4 µg/mL (≈ 10.2 µM) in the assay with H. influenzae 30063.

In the case of `O=C(NC[C@H]1CN(c2ccc([C@H]3[C@@H]4CS(=O)(=O)C[C@@H]43)c(F)c2)C(=O)O1)C1CC1` [Example 53, N-[((5S)-3-{3-fluoro-4-[exo-(1R,5S)-3,3-dioxido-3-thiabicyclo[3.1.0]hex-6-yl]phenyl}-2-oxo-1,3-oxazolidin-5-yl)methyl]cyclopropanecarboxamide], the MIC in the assay on S. aureus UC9213 worked out at 4 µg/mL (≈ 9.79 µM); in the assay on S. pneumoniae UC9912, 2 µg/mL (≈ 4.9 µM); in the assay on H. influenzae 30063 it was 4 µg/mL (≈ 9.79 µM).

As to `CC(F)(F)C(=O)NC[C@H]1CN(c2ccc([C@H]3[C@@H]4C[S+]([O-])C[C@@H]43)c(F)c2)C(=O)O1` (stereo partly drawn) [Example 54, 2,2-difluoro-N-[((5S)-3-{3-fluoro-4-[exo-(1R,5S)-3-oxido-3-thiabicyclo[3.1.0]-6-yl]phenyl}-2-oxo-1,3-oxazolidin-5-yl)methyl]propanamide], the values for the MIC with S. aureus UC9213, against S. pneumoniae UC9912 and with H. influenzae 30063 were 8 µg/mL (≈ 19.2 µM), 4 µg/mL (≈ 9.61 µM) and 4 µg/mL (≈ 9.61 µM), respectively.

In the case of `CC(F)(F)C(=O)NC[C@H]1CN(c2ccc([C@H]3[C@@H]4CS(=O)(=O)C[C@@H]43)c(F)c2)C(=O)O1` [Example 55, 2,2-difluoro-N-[((5S)-3-{3-fluoro-4-[exo-(1R,5S)-3,3-dioxido-3-thiabicyclo[3.1.0]hex-6-yl]phenyl}-2-oxo-1,3-oxazolidin-5-yl)methyl]propanamide], the MIC worked out at 8 µg/mL (≈ 18.5 µM) with S. aureus UC9213, 2 µg/mL (≈ 4.63 µM) against S. pneumoniae UC9912 and 16 µg/mL (≈ 37 µM) in the assay with H. influenzae 30063.

`O=C(NC[C@H]1CN(c2ccc([C@H]3[C@@H]4C[S+]([O-])C[C@@H]43)c(F)c2)C(=O)O1)C1CCC1` (stereo partly drawn) [Example 56, N-[((5S)-3-{3-fluoro-4-[exo-(1R,5S)-3-oxido-3-thiabicyclo[3.1.0]hex-6-yl]phenyl}-2-oxo-1,3-oxazolidin-5-yl)methyl]cyclobutanecarboxamide]: the MIC came out at 4 µg/mL (≈ 9.84 µM) against S. aureus UC9213, 2 µg/mL (≈ 4.92 µM) in the assay on S. pneumoniae UC9912 and 16 µg/mL (≈ 39.4 µM) in the assay with H. influenzae 30063.

On to `O=C(NC[C@H]1CN(c2ccc([C@H]3[C@@H]4CS(=O)(=O)C[C@@H]43)c(F)c2)C(=O)O1)C1CCC1` [Example 57, N-[((5S)-3-{3-fluoro-4-[exo-(1R,5S)-3,3-dioxido-3-thiabicyclo[3.1.0]hex-6-yl]phenyl}-2-oxo-1,3-oxazolidin-5-yl)methyl]cyclobutanecarboxamide], for which the MIC in the assay on S. aureus UC9213 was 8 µg/mL (≈ 18.9 µM); against S. pneumoniae UC9912, 2 µg/mL (≈ 4.73 µM); with H. influenzae 30063, 32 µg/mL (≈ 75.7 µM).
